# Patent publication US4175081A, “5-Substituted thiadiazole ureas” (priority 1977, dated 1979)
# Assays:
# [1] = test system: Yellow foxtail grass (YF); test: Pre-emergence herbicide test; format: in vivo, Setaria glauca; details: Setaria, 336 h, two weeks after treatment
# Outline: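 Visual rating of injury/control made two weeks after a pre-emergence spray of 8 or 4 lbs active per acre (38 gal/acre) onto pots seeded the previous day. Greenhouse watering by sub-irrigation only.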
# Barnyard grass (BG) = test: Pre-emergence herbicide test; format: in vivo; details: Echinochloa crus-galli, 336 h, two weeks after treatment
# Outline: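 Greenhouse pre-emergence spray test: pots seeded one day before treatment received compound at rates of 8 or 4 lb/acre (38 gal/acre). Visual injury/control scores for Echinochloa crus-galli taken at two weeks, with watering by sub-irrigation only.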
# Turnip (TP) = test: Pre-emergence herbicide test; format: in vivo, Brassica sp.; details: Brassica rapa, pre-emergence, 336 h, two weeks after treatment
# Outline: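 In this pre-emergence greenhouse test, turnip was seeded on the surface of potting soil in 3' plastic pots, lightly covered with screened soil, and watered from below. One day later the pots were sprayed in a belt-fed spray hood. Watering continued only by sub-irrigation, and percent control was visually scored two weeks after treatment.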
# Corn (CN) = test: Pre-emergence herbicide test; format: in vivo; details: Zea mays, 336 h, two weeks after treatment
# Outline: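 Visual injury/control ratings were made 2 weeks post-spray on corn pots seeded (4 seeds, seed-diameter depth) the day before treatment. Application was a belt-hood spray of 38 gal/acre delivering 8 lbs active per acre, with a 4 lbs/acre rate also formulated. Watering was by sub-irrigation throughout.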
# [2] = test system: Yellow foxtail grass (YF); test: Post-emergence herbicide test; format: in vivo, Setaria glauca; details: Setaria, 336 h, two weeks after treatment
# Outline: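 Visual rating of injury/control made 2 weeks post-spray. Seedlings at a uniform growth stage in soil-filled pots received a hood spray of 8 lbs/acre active compound, 38 gallons/acre volume, with a 4 lbs/acre rate also formulated. Watering was by sub-irrigation only.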
# Johnson grass (JG) = test: Post-emergence herbicide test; format: in vivo, Sorgum helepense; details: Sorghum halepense, 336 h, two weeks after treatment
# Outline: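 Visual injury or control scores taken 2 weeks after a post-emergence spray of pot-grown plants. Application was 8 lbs/acre (or 4 lbs/acre) in 38 gal/acre. Plants were held in the greenhouse with sub-irrigation only.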
# Sinapis = test: Field test, post-emergence application; format: in vivo; set-up: unit not given here; details: 2 lbs/acre, reading 0 = no effect, 10 = completely killed, 8 and 14 days
# Method: Tests have also been made for the compound of Example 1 with Sinapis, oats and wheat. This test was conducted according to the following procedure.
# Forty rows, 70 feet long, were planted to weeds and crops. Two rows were planted on each bed. Beds were 40 inches apart from center to center. The two rows were about 10 inches apart on each bed. Beds were rolled prior to planting to provide a uniform smooth surface. Soil temperature at a depth of 11/2 inches was 66° F. at time of planting. Post-emergence applications were made by spraying bands across rows 10 feet wide using a self-propelled plot sprayer with a 10 foot boom equipped with Teejet 8001 flat spray nozzle tips and operated at 40 psi. A total of 84 fluid ounces of spray material was applied to three replicates. Each replicate plot was 10 feet wide by 66.67 feet long.
# Eight days after the application, readings were made on the effect of the chemicals on each crop and weed in the post-emergence treatment. A reading of 0 was recorded if no effect was observed; 10 recorded if the plants were completely killed, and readings of 1 to 9 for intermediate kills. A second reading of the post-emergence treatments was made 14 days after the application.
# [3] = Acute oral toxicity in rats; details: rat, in vivo
smiles,measurement,setting,value
"CNC(=O)Nc1nnc(C(F)(F)F)s1 [Example 1, 1-Methyl-3-[5-Trifluoromethyl-2-(1,3,4-Thiadiazolyl)] Urea]",pest or weed control at 4483.4 g/ha,[1]; 4 lb/acre,80%
same,pest or weed control at 8966.8 g/ha,[1]; 8 lb/acre,90%
same,pest or weed control at 4483.4 g/ha,Barnyard grass (BG); 4 lb/acre,90%
same,pest or weed control at 8966.8 g/ha,Barnyard grass (BG); 8 lb/acre,90%
same,pest or weed control at 4483.4 g/ha,Turnip (TP); 4 lb/acre,90%
same,pest or weed control at 8966.8 g/ha,Turnip (TP); 8 lb/acre,100%
same,pest or weed control at 4483.4 g/ha,Corn (CN); 4 lb/acre,30%
same,pest or weed control at 8966.8 g/ha,Corn (CN); 8 lb/acre,90%
same,pest or weed control,[2]; 2 lb/acre,50%
same,pest or weed control at 4483.4 g/ha,[2]; 4 lb/acre,90%
same,pest or weed control at 8966.8 g/ha,[2]; 8 lb/acre,100%
same,pest or weed control,Johnson grass (JG); 2 lb/acre,90%
same,pest or weed control at 4483.4 g/ha,Johnson grass (JG); 4 lb/acre,90%
same,pest or weed control at 8966.8 g/ha,Johnson grass (JG); 8 lb/acre,100%
same,"Post-emergence activity, % control, Sinapis",Sinapis,10
same,LD50,[3],436 mg/kg
